Consider three compounds from paper PMC7319089, “Multi-Component Comparative Pharmacokinetics in Rats After Oral Administration of Fructus aurantii Extract, Naringin, Neohesperidin, and Naringin-Neohesperidin” (Frontiers in Pharmacology, 2020).

Like-named read-outs stand apart in the source and are kept apart here.

On the set-up of data set [1]: method as in Wang et al., 2018. The conditions noted are these: after orally administering 30 g/kg FA decoction; ref Wang et al., 2018; cited from earlier work.
Data set [2] can be described thus: Pharmacokinetics in SD rats after oral administration of FA extract, NA, NHE or NA-NHE (UPLC-MS/MS of plasma, DAS 3.1). The conditions noted are these: for Shape of the plasma concentration-time profile: oral administration, naringin and neohesperidin determined as naringenin and hesperetin. The data set is classed as in vivo, Sprague-Dawley (SD) rats. Here is the method: The 20 μl of β-glucuronidase and 15 μl of sulfatase were added into 50 μl of plasma sample. After vortexed for 30 s, the mixture was incubated at 37°C for 2 h in a water bath, then placed in ice water for 5 min to terminate the reaction ([Xu et al., 2019]). IS solution (20 µl, 5 μg/ml) and acetonitrile (1.0 ml) were added into the mixture and vortexed for 2 min. […] Rats were randomly divided into the following four groups (6 rats in each group): naringin (NA), neohesperidin (NHE), naringin-neohesperidin (NA-NHE), and FA extract group. The oral administration doses were selected according to the literatures ([Tong et al., 2012]; [Yang et al., 2012]; [Committee of National Pharmacopoeia of RP China, 2015]; [Wang et al., 2018]; [Zhang et al., 2018]; [Chen et al., 2019]), the contents of the five components in FA, and the preliminary experiments. The specific doses were as follows: […] The rats had free access to water during the experiment. The blood samples were then immediately centrifuged at 4,000 rpm for 10 min. The plasma was frozen and stored at −80°C until analysis. The plasma concentration of the studied compounds was determined according to the daily calibration curve.

Data set [3] in a line: Stability of the analytes in rat plasma (QC samples). The data set is classed as in vitro ADME. The conditions noted are these: n = 6; for Long-term Stability RE: -20 °C for one month; for Short-term Stability RE: room temperature 24 h; for Free–thaw Stability RE: three cycles -20 °C/room temperature. The method, then:
The QC samples were assayed under several different conditions to evaluate the stability of the compounds in rat plasma. For the short-term stability, fresh plasma samples were kept at room temperature for 24 h before the sample preparation. After keeping the samples at room temperature for 24 h, post-preparation stability was tested. Freeze-thaw cycles (-20 °C/room temperature) stability were […] treated at -20°C for freezing-room temperature melting three times (repeated freezing and thawing three times). In each freeze-thaw cycle, the samples were frozen and stored at -20 °C for 24 h, and subsequently thawed at room. To evaluate the long-term stability of QC plasma samples, following storage at -20 °C for one month. The stability data were acceptable when the bias was within ±15% of the actual value ([Yuan et al., 2017]).

The mark [4] stands for this setting: male SD rats, oral FA extract 10.8 g/kg of the original medicinal material, two-compartment model parameters, n = 6.
[5] abbreviates: male, Sprague-Dawley, rat, plasma, po, 10.8 g/kg, male SD rats, oral FA extract 10.8 g/kg of the original medicinal material, two-compartment model parameters, n = 6.
[6] abbreviates: male, Sprague-Dawley, rat, plasma, po, 10.8 g/kg, male SD rats, oral FA extract 10.8 g/kg of the original medicinal material, two-compartment model parameters, n = 6, read-out: AUC(0-t).
Setting [7] is: male, Sprague-Dawley, rat, plasma, po, 10.8 g/kg, male SD rats, oral FA extract 10.8 g/kg of the original medicinal material, two-compartment model parameters, n = 6, read-out: CL/F (converted).
The mark [8] stands for this setting: male, Sprague-Dawley, rat, plasma, po, 10.8 g/kg, male SD rats, oral FA extract 10.8 g/kg of the original medicinal material, two-compartment model parameters, n = 6, read-out: t1/2β (converted).
Where [9] appears, read: high QC concentration (3880 / 2946 / 2470 / 836 / 422.4 ng/mL).
Setting [10] is: low QC concentration (3.88 / 2.946 / 2.47 / 0.836 / 0.4224 ng/mL).
Where [11] appears, read: middle QC concentration (77.6 / 58.92 / 49.4 / 16.72 / 8.44 ng/mL).
The mark [12] stands for this setting: SD rats, oral compatibility NA-NHE (naringin 1.85 g/kg and neohesperidin 1.81 g/kg), two-compartment parameters, n = 6.
Where [13] appears, read: SD rats, oral monomer (naringin 1.85 g/kg or neohesperidin 1.81 g/kg), two-compartment parameters, n = 6.

On to `C[C@@H]1O[C@@H](O[C@H]2[C@H](Oc3cc(O)c4c(c3)O[C@H](c3ccc(O)cc3)CC4=O)O[C@H](CO)[C@@H](O)[C@@H]2O)[C@H](O)[C@H](O)[C@H]1O` [NA, naringin], for which the “Detection in rat plasma” value in data set [1] is recorded as “could not been detected”. Further, the V1/F in data set [2] (setting [4]) was determined as 0.82 ± 0.06 L/kg. Moreover, in data set [2] (setting [5]), the AUC(0-inf) (as a rule, total exposure, with the tail of the curve extrapolated) stood at 20900 ± 3010 ng·h/mL. In data set [2] (setting [6]), the AUC(0-t) (as a rule, exposure summed from dosing to a finite time, without extrapolation to infinity) turned out to be 20700 ± 3010 ng·h/mL. Moreover, in data set [2] (setting [7]), the CL/F is 13.8 mL/min/kg. Further, the half-life in data set [2] (setting [8]) is 2.65 ± 0.18 h. In addition, in data set [2] (rats), the “Shape of the plasma concentration-time profile” value is recorded as “Double-peak phenomenon”.

`COc1ccc(-c2cc(=O)c3c(OC)c(OC)c(OC)c(OC)c3o2)cc1OC` [Nobiletin, nobiletin]: the “Long-term Stability RE” value in data set [3] (setting [9]) is given as -3.36%; in data set [3] (setting [10]), 5.83%; in data set [3] (setting [11]), 6.71%. In addition, the figures for the “Short-term Stability RE” value in data set [3] (setting [9]), in data set [3] (setting [10]) and in data set [3] (setting [11]) were 0.80%, 7.01% and 7.89%, respectively. In addition, the “Free–thaw Stability RE” value in data set [3] (setting [9]) is given as -1.72%; in data set [3] (setting [10]), 2.21%; in data set [3] (setting [11]), 10.46%. For the same compound, the AUC(0-t) was 473 ± 119 ng·h/mL in data set [2] (Sprague-Dawley, rat, plasma, po, 10.8 g/kg, rats, oral FA extract, unit inferred, read-out: AUC(0-t)); 473 ± 119 ng·h/mL in data set [2] (male, Sprague-Dawley, rat, plasma, po, 10.8 g/kg, male SD rats, oral FA extract 10.8 g/kg of the original medicinal material, statistical moment parameters, n = 6, read-out: AUC(0-t)); 472 ± 62.6 ng·h/mL in data set [2] (setting [6]). The MRT last in data set [2] (Sprague-Dawley, rat, plasma, male SD rats, oral FA extract 10.8 g/kg of the original medicinal material, statistical moment parameters, n = 6, read-out: MRT(0-t)) amounted to 4.23 ± 0.5 h. Also, in data set [2] (Sprague-Dawley, rat, plasma, male SD rats, oral FA extract 10.8 g/kg of the original medicinal material, statistical moment parameters, n = 6, read-out: MRT(0-∞)), the MRT inf was determined as 4.8 ± 0.99 h. Moreover, in data set [2] (Sprague-Dawley, rat, plasma, male SD rats, oral FA extract 10.8 g/kg of the original medicinal material, statistical moment parameters, n = 6, read-out: Vz/F), the Vd/F worked out at 151 ± 47 L/kg. The same compound had a Cmax in data set [2] (Sprague-Dawley, rat, male SD rats, oral FA extract 10.8 g/kg of the original medicinal material, plasma after β-glucuronidase/sulfatase hydrolysis, statistical moment parameters, n = 6) of 130 ± 4.78 ng/mL. The compound further returned a Ka in data set [2] (setting [4]) of 0.69 ± 0.25 h⁻¹. Moreover, the V1/F in data set [2] (setting [4]) is 6.80 ± 1.24 L/kg. In data set [2] (setting [4]), this compound registered a t1/2α of 4.40 ± 0.34 h. The area under the curve AUC(0-inf) in data set [2] (male, Sprague-Dawley, rat, plasma, po, 10.8 g/kg, male SD rats, oral FA extract 10.8 g/kg of the original medicinal material, statistical moment parameters, n = 6) is 480 ± 117 ng·h/mL; in data set [2] (setting [5]), 473 ± 63.1 ng·h/mL. Besides, the CL/F in data set [2] (male, Sprague-Dawley, rat, plasma, po, 10.8 g/kg, male SD rats, oral FA extract 10.8 g/kg of the original medicinal material, statistical moment parameters, n = 6, read-out: CLz/F (converted)) is 393 mL/min/kg; in data set [2] (setting [7]) it was 134 mL/min/kg. The Tmax – broadly, the time from dosing to the highest level – in data set [2] (male, Sprague-Dawley, rat, plasma, po, 10.8 g/kg, male SD rats, oral FA extract 10.8 g/kg of the original medicinal material, statistical moment parameters, n = 6, read-out: Tmax) turned out to be 1.17 ± 0.26 h. The half-life was 2.1 ± 0.37 h in data set [2] (male, Sprague-Dawley, rat, plasma, po, 10.8 g/kg, male SD rats, oral FA extract 10.8 g/kg of the original medicinal material, statistical moment parameters, n = 6, read-out: t1/2z (converted)) and 4.49 ± 0.57 h in data set [2] (setting [8]).

For the compound `COc1ccc([C@@H]2CC(=O)c3c(O)cc(O[C@@H]4O[C@H](CO)[C@@H](O)[C@H](O)[C@H]4O[C@@H]4O[C@@H](C)[C@H](O)[C@@H](O)[C@H]4O)cc3O2)cc1O` [NHE, neohesperidin], in data set [1], the “Detection in rat plasma” value was “could not been detected”. Moreover, in data set [2] (setting [12]), the “AUC(0-t)” value turned out to be 3475.14 ± 714.19 ng·h/mL, the “AUC(0-∞)” value turned out to be 3557.64 ± 726.84 ng·h/mL, the CL/F came out at 60.5 ± 13.3 mL/min/kg and the Ka is 4.40 ± 0.83 h⁻¹. Also, in data set [2] (setting [12]), the V1/F is listed as 4.37 ± 1.16 L/kg, the “t1/2(Ka)” value is 0.57 ± 0.11 h, the t1/2α is 3.22 ± 0.42 h and the t1/2β came to 3.43 ± 0.55 h. In data set [2] (setting [13]), the “AUC(0-t)” value was 2932.05 ± 625.03 ng·h/mL, the “AUC(0-∞)” value is 2988.05 ± 621.39 ng·h/mL, the CL/F amounted to 91.5 ± 12.2 mL/min/kg and the Ka turned out to be 1.64 ± 0.35 h⁻¹. Further, in data set [2] (setting [13]), the V1/F was 4.58 ± 1.18 L/kg, the “t1/2(Ka)” value worked out at 0.96 ± 0.08 h, the t1/2α is 4.39 ± 0.47 h and the t1/2β came out at 4.61 ± 0.48 h. Moreover, in data set [2] (setting [4]), the “AUC(0-t)” value worked out at 4345.39 ± 704.69 ng·h/mL, the “AUC(0-∞)” value was 4421.59 ± 723.98 ng·h/mL, the CL/F came out at 68.2 ± 18.3 mL/min/kg and the Ka turned out to be 3.17 ± 0.93 h⁻¹. Besides, in data set [2] (setting [4]), the V1/F stood at 7.17 ± 1.40 L/kg, the “t1/2(Ka)” value was 0.26 ± 0.07 h, the t1/2α is listed as 3.47 ± 0.51 h and the t1/2β was 3.86 ± 0.32 h. The “Shape of the plasma concentration-time profile” value in data set [2] (rats) is on record as “Double-peak phenomenon”.
